Measured values as given in the supplement of paper PMC10307832.

Columns and labels:
Assay in all cases: relative viability (nuclei count vs DMSO), 5 days (fraction); higher = more cells survive
KN-93 + Bortezomib = compound: CN(C/C=C/C1=CC=C(C=C1)Cl)CC2=CC=CC=C2N(CCO)S(=O)(=O)C3=CC=C(C=C3)OC [KN-93] + CC(C)C[C@H](NC(=O)[C@H](Cc1ccccc1)NC(=O)c1cnccn1)B(O)O [Bortezomib] (partner 0.002 µM)
Procedure, shortened: (§1)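 Relative viability divides the nuclei count in treated wells by that in vehicle wells. Lung cancer cell lines were seeded in 1536-well plates, dosed by pin tool the next day, and fixed and stained after 5 days in one step with final 0.05% Triton X-100, 1% formaldehyde and 1 ug/ml Hoechst. Dosing was a single drug or a fixed anchor-drug dose plus five library-drug doses (not always all listed) in √10 steps, and values are medians of duplicate plates imaged at 4×.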

KN-93 + OSI-027 = compound: CN(C/C=C/C1=CC=C(C=C1)Cl)CC2=CC=CC=C2N(CCO)S(=O)(=O)C3=CC=C(C=C3)OC [KN-93] + COc1cccc2cc(-c3nc([C@H]4CC[C@H](C(=O)O)CC4)n4ncnc(N)c34)[nH]c12 [OSI-027] (partner 0.5 µM)
Procedure, shortened: as §1

KN-93 + Crizotinib = compound: CN(C/C=C/C1=CC=C(C=C1)Cl)CC2=CC=CC=C2N(CCO)S(=O)(=O)C3=CC=C(C=C3)OC [KN-93] + C[C@@H](Oc1cc(-c2cnn(C3CCNCC3)c2)cnc1N)c1c(Cl)ccc(F)c1Cl [Crizotinib] (partner 1 µM)
Procedure, shortened: as §1

KN-93 + Pemetrexed = compound: CN(C/C=C/C1=CC=C(C=C1)Cl)CC2=CC=CC=C2N(CCO)S(=O)(=O)C3=CC=C(C=C3)OC [KN-93] + Nc1nc2[nH]cc(CCc3ccc(C(=O)N[C@@H](CCC(=O)O)C(=O)O)cc3)c2c(=O)[nH]1 [Pemetrexed] (partner 0.2 µM)
Procedure, shortened: as §1

KN-93 + Decitabine = compound: CN(C/C=C/C1=CC=C(C=C1)Cl)CC2=CC=CC=C2N(CCO)S(=O)(=O)C3=CC=C(C=C3)OC [KN-93] + Nc1ncn([C@H]2C[C@H](O)[C@@H](CO)O2)c(=O)n1 [Decitabine] (partner 2 µM)
Procedure, shortened: as §1

Cell Line	relative viability (KN-93 + Bortezomib; first compound 0.253 µM)	relative viability (KN-93 + Bortezomib; first compound 2.53 µM)	relative viability (KN-93 + Bortezomib; first compound 8 µM)	relative viability (KN-93 + OSI-027; first compound 0.08 µM)	relative viability (KN-93 + OSI-027; first compound 0.253 µM)	relative viability (KN-93 + OSI-027; first compound 2.53 µM)	relative viability (KN-93 + OSI-027; first compound 8 µM)	relative viability (KN-93 + Crizotinib; first compound 0.253 µM)	relative viability (KN-93 + Crizotinib; first compound 2.53 µM)	relative viability (KN-93 + Crizotinib; first compound 8 µM)	relative viability (KN-93 + Pemetrexed; first compound 0.08 µM)	relative viability (KN-93 + Pemetrexed; first compound 0.253 µM)	relative viability (KN-93 + Pemetrexed; first compound 2.53 µM)	relative viability (KN-93 + Pemetrexed; first compound 8 µM)	relative viability (KN-93 + Decitabine; first compound 0.08 µM)	relative viability (KN-93 + Decitabine; first compound 0.253 µM)	relative viability (KN-93 + Decitabine; first compound 2.53 µM)	relative viability (KN-93 + Decitabine; first compound 8 µM)	relative viability (KN-93 + Bortezomib; first compound 0.08 µM)	relative viability (KN-93 + Crizotinib; first compound 0.08 µM)
HCC-366	1.48	1.57	0.955	0.758	0.696	0.894	0.235	0.609	0.68	0.129	0.157	0.175	0.189	0.133	0.333	0.333	0.307	0.299	–	–
HCC-827	1.11	0.972	0.872	0.729	0.777	0.991	0.565	0.996	0.908	0.778	0.243	0.286	0.257	0.286	0.356	0.335	0.332	0.304	1.01	0.993
HOP-62	1.28	0.958	0.711	0.855	1.08	1.07	0.537	1.09	1.15	0.952	0.28	0.383	0.346	0.322	0.225	0.27	0.241	0.239	0.442	0.936
IA-LM	0.875	0.991	0.481	–	–	–	–	0.822	0.975	0.431	–	–	–	–	–	–	–	–	0.738	0.745
LC-2-ad	0.998	1.22	0.446	0.874	0.964	0.842	0.707	0.459	0.474	0.43	0.272	0.272	0.298	0.295	0.775	0.772	0.911	0.702	0.975	0.453
LCLC-97TM1	0.576	0.906	0.466	0.461	0.634	0.561	0.353	–	0.379	0.255	0.199	0.165	0.179	0.145	0.288	0.208	0.279	0.211	0.636	0.321
LCLC-103H	1.07	1.16	0.949	0.446	0.455	0.356	0.309	1.13	1.08	0.776	0.455	0.443	0.515	0.475	0.657	0.69	0.673	0.518	0.968	1.06
LK-2	–	–	–	0.207	0.182	0.189	0.165	0.199	0.216	0.27	0.275	0.273	0.288	0.2	0.276	0.293	0.315	0.278	–	0.214
NCI-H358	–	–	–	0.74	0.653	0.831	0.421	0.568	0.519	0.426	0.166	0.182	0.169	0.157	0.212	0.207	0.198	0.184	–	0.565
